Nine compounds from ChEMBL document CHEMBL1130756, “Synthesis and cytotoxic activity of novel 10-alkylated docetaxel analogs” (1998) can be followed below.

One experiment deals with P388. Briefly: Concentration required to inhibit the growth of mouse leukemia (P388) cell lines by 50% on 72 h continuous exposure. Format: functional. To be noted: P388, 72 h.
The next experiment concerns PC-6. The experiment can be described thus: Concentration required to inhibit the growth of human lung cancer (PC-6)cell lines by 50% on 72 hr continuous exposure. It counts as functional. Particulars: PC-6, 72 h.

≈ marks a conversion by molar mass, not a printed value.

Regarding `CCOC(=O)CC[C@H]1C(=O)[C@]2(C)[C@@H](O)CC3OC[C@@]3(OC(C)=O)[C@H]2[C@H](OC(=O)c2ccccc2)[C@]2(O)C[C@H](OC(=O)[C@H](O)[C@@H](NC(=O)OC(C)(C)C)c3ccccc3)C(C)=C1C2(C)C` (stereo partly drawn), the GI50 with P388 is 4.31 ng/mL (≈ 0.00483 µM); in the experiment with PC-6 it was 1.35 ng/mL (≈ 0.00151 µM).
The matching figures for `CC(=O)O[C@@]12COC1C[C@H](O)[C@@]1(C)C(=O)[C@H](CCCN)C3=C(C)[C@@H](OC(=O)[C@H](O)[C@@H](NC(=O)OC(C)(C)C)c4ccccc4)C[C@@](O)([C@@H](OC(=O)c4ccccc4)[C@@H]12)C3(C)C` (stereo partly drawn): 1520 ng/mL (≈ 1.79 µM) and 236 ng/mL (≈ 0.278 µM).
The matching figures for `CC(=O)NCCC[C@H]1C(=O)[C@]2(C)[C@@H](O)CC3OC[C@@]3(OC(C)=O)[C@H]2[C@H](OC(=O)c2ccccc2)[C@]2(O)C[C@H](OC(=O)[C@H](O)[C@@H](NC(=O)OC(C)(C)C)c3ccccc3)C(C)=C1C2(C)C` (stereo partly drawn): 71.8 ng/mL (≈ 0.0806 µM) and 10.5 ng/mL (≈ 0.0118 µM).
The matching figures for `COC(=O)CC[C@H]1C(=O)[C@]2(C)[C@@H](O)CC3OC[C@@]3(OC(C)=O)[C@H]2[C@H](OC(=O)c2ccccc2)[C@]2(O)C[C@H](OC(=O)[C@H](O)[C@@H](NC(=O)OC(C)(C)C)c3ccccc3)C(C)=C1C2(C)C` (stereo partly drawn): 3.3 ng/mL (≈ 0.00376 µM) and 0.771 ng/mL (≈ 0.000878 µM).
As to `CC(=O)O[C@@]12COC1C[C@H](O)[C@@]1(C)C(=O)[C@H](CCCO)C3=C(C)[C@@H](OC(=O)[C@H](O)[C@@H](NC(=O)OC(C)(C)C)c4ccccc4)C[C@@](O)([C@@H](OC(=O)c4ccccc4)[C@@H]12)C3(C)C` (stereo partly drawn), the GI50 in the experiment with P388 turned out to be 15.5 ng/mL (≈ 0.0182 µM); in the experiment on PC-6 it was 0.777 ng/mL (≈ 0.000914 µM).
With `CC(=O)O[C@@]12CO[C@@H]1C[C@H](O)[C@@]1(C)C(=O)[C@H](O)C3=C(C)[C@@H](OC(=O)[C@H](O)[C@@H](NC(=O)OC(C)(C)C)c4ccccc4)C[C@@](O)([C@@H](OC(=O)c4ccccc4)[C@H]21)C3(C)C.O.O.O` [DOCETAXEL], the concentration for 50% growth inhibition (GI50) with P388 is 6.74 ng/mL; in the experiment with PC-6, 1.13 ng/mL.
The matching figures for `CC(=O)O[C@@]12COC1C[C@H](O)[C@@]1(C)C(=O)[C@H](CCC#N)C3=C(C)[C@@H](OC(=O)[C@H](O)[C@@H](NC(=O)OC(C)(C)C)c4ccccc4)C[C@@](O)([C@@H](OC(=O)c4ccccc4)[C@@H]12)C3(C)C` (stereo partly drawn): 18.4 ng/mL (≈ 0.0218 µM) and 0.681 ng/mL (≈ 0.000806 µM).
With `CC(=O)CC[C@H]1C(=O)[C@]2(C)[C@@H](O)CC3OC[C@@]3(OC(C)=O)[C@H]2[C@H](OC(=O)c2ccccc2)[C@]2(O)C[C@H](OC(=O)[C@H](O)[C@@H](NC(=O)OC(C)(C)C)c3ccccc3)C(C)=C1C2(C)C` (stereo partly drawn), the figures for the GI50 in the experiment with P388 and with PC-6 were 7.12 ng/mL (≈ 0.00826 µM) and 0.266 ng/mL (≈ 0.000309 µM), respectively.
The matching figures for `CC(=O)O[C@@]12COC1C[C@H](O)[C@@]1(C)C(=O)[C@H](CCC(=O)O)C3=C(C)[C@@H](OC(=O)[C@H](O)[C@@H](NC(=O)OC(C)(C)C)c4ccccc4)C[C@@](O)([C@@H](OC(=O)c4ccccc4)[C@@H]12)C3(C)C` (stereo partly drawn): 1870 ng/mL (≈ 2.16 µM) and 934 ng/mL (≈ 1.08 µM).

Broadly, the GI50 is the concentration at which growth is held to half of that of the control. Low readings indicate more potent growth inhibition, high ones less potent growth inhibition.
